Laboratory results published in US8435547B2, “Cream for stimulating mitochondrial activity in the skin” (priority 2006, dated 2013).

Experiments:
skin = assay: Skin testing for the cause of the allergic reactions; assay type: in vivo, human; conditions: skin testing in the same volunteer
Description: When the use of the cream containing these ingredients was discontinued, the allergic lesions cleared completely without scarring.

[1] = cited from earlier work
[2] = oral, human; cited from earlier work

## CCOC(=O)CC(O)C(=O)OCC (stereo not shown) [diethyl malate]
skin
  ingredient responsible for the allergic reactions: allergic reactions were due to the diethyl malate

## tristeryl glycerol
[1]; alcohol
  solubility in alcohol: very slightly soluble
[1]; water
  solubility in water: insoluble

## vitamin E
[2]
  dose above which toxicity is evident: above 1 gm/day
